Reference: the supplement of paper PMC11451515

Columns and labels:
Settings in all cases: 48 h
P12-Ichikawa [1] = assay: AUC of viability dose-response curve (% viability x log10 dose units); higher = less sensitive
Procedure, shortened: (§1)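 Seeding of medium-adapted leukemia cells was at 500 or 1000 cells/well in 1536-well plates, followed by 48 h at 37°C with library compounds in DMSO at 11 threefold doses from 47 μM to 0.79 nM. CellTiter-Glo One luminescence was normalised per plate to DMSO and cell-free wells and fitted as a four-parameter log-logistic function of log10 dose. Area under the curve was integrated by trapezoidal rule, with curves exceeding full viability scaled and curves failing quality control removed.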

SEM cells [2] = assay: as above
Procedure, shortened: as §1

P12-Ichikawa [3] = assay: cell viability relative to DMSO control; higher = less cytotoxic
Procedure, shortened: (§2)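 Leukemia cells (NOMO1 or SEM, 500 cells/well; P12-Ichikawa, 1000 cells/well) were seeded in 5 μl in 1536-well plates after at least four passages of adaptation to each medium. They received library compounds in DMSO by pin dosing, 11 threefold points from 47 μM to 0.79 nM. Luminescence with CellTiter-Glo One was read after 48 h at 37°C. Viability is stated per plate relative to DMSO wells, with cell-free wells as background.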

NOMO1 [4] = assay: as above
Procedure, shortened: as §2

SEM cells [5] = assay: as above
Procedure, shortened: as §2

NOMO1 [6] = assay: AUC of viability dose-response curve (% viability x log10 dose units); higher = less sensitive
Procedure, shortened: as §1

[7] = RPMI 5 mM glucose + 10% dialyzed FBS
[8] = HPLM + 10% dialyzed FBS, 0.000781 µM
[9] = HPLM + 10% dialyzed FBS, 0.00234 µM
[10] = HPLM + 10% dialyzed FBS, 0.00702 µM
[11] = HPLM + 10% dialyzed FBS, 0.0211 µM
[12] = HPLM + 10% dialyzed FBS, 0.0632 µM
[13] = HPLM + 10% dialyzed FBS, 0.19 µM
[14] = HPLM + 10% dialyzed FBS, 0.569 µM
[15] = HPLM + 10% dialyzed FBS, 1.71 µM
[16] = HPLM + 10% dialyzed FBS, 5.12 µM
[17] = HPLM + 10% dialyzed FBS, 15.4 µM
[18] = HPLM + 10% dialyzed FBS, 46.1 µM
[19] = RPMI 5 mM glucose + 10% FBS, 0.000781 µM
[20] = RPMI 5 mM glucose + 10% FBS, 0.00234 µM
[21] = RPMI 5 mM glucose + 10% FBS, 0.00702 µM
[22] = RPMI 5 mM glucose + 10% FBS, 0.0211 µM
[23] = RPMI 5 mM glucose + 10% FBS, 0.0632 µM
[24] = RPMI 5 mM glucose + 10% FBS, 0.19 µM
[25] = RPMI 5 mM glucose + 10% FBS, 0.569 µM
[26] = RPMI 5 mM glucose + 10% FBS, 1.71 µM
[27] = RPMI 5 mM glucose + 10% FBS, 5.12 µM
[28] = RPMI 5 mM glucose + 10% FBS, 15.4 µM
[29] = RPMI 5 mM glucose + 10% FBS, 46.1 µM
[30] = RPMI 5 mM glucose + 10% dialyzed FBS, 0.000781 µM
[31] = RPMI 5 mM glucose + 10% dialyzed FBS, 0.00234 µM
[32] = RPMI 5 mM glucose + 10% dialyzed FBS, 0.00702 µM
[33] = RPMI 5 mM glucose + 10% dialyzed FBS, 0.0211 µM
[34] = RPMI 5 mM glucose + 10% dialyzed FBS, 0.0632 µM
[35] = RPMI 5 mM glucose + 10% dialyzed FBS, 0.19 µM
[36] = RPMI 5 mM glucose + 10% dialyzed FBS, 0.569 µM
[37] = RPMI 5 mM glucose + 10% dialyzed FBS, 1.71 µM
[38] = RPMI 5 mM glucose + 10% dialyzed FBS, 5.12 µM
[39] = RPMI 5 mM glucose + 10% dialyzed FBS, 15.4 µM
[40] = RPMI 5 mM glucose + 10% dialyzed FBS, 46.1 µM

Cc1ccccc1N1C(=O)c2cc([S+](N)(=O)[O-])c(Cl)cc2NC1C (centres undefined)
AUC of viability dose-response curve (P12-Ichikawa [1]; HPLM + 10% dialyzed FBS): 449 | AUC of viability dose-response curve (P12-Ichikawa [1]; RPMI 5 mM glucose + 10% FBS): 460 | AUC of viability dose-response curve (P12-Ichikawa [1]; [7]): 450 | AUC of viability dose-response curve (SEM cells [2]; HPLM + 10% dialyzed FBS): 448 | AUC of viability dose-response curve (SEM cells [2]; RPMI 5 mM glucose + 10% FBS): 413 | AUC of viability dose-response curve (SEM cells [2]; [7]): 462 | cell viability (P12-Ichikawa [3]; [8]): 134% | cell viability (P12-Ichikawa [3]; [9]): 121% | cell viability (P12-Ichikawa [3]; [10]): 119% | cell viability (P12-Ichikawa [3]; [11]): 132% | cell viability (P12-Ichikawa [3]; [12]): 125% | cell viability (P12-Ichikawa [3]; [13]): 125% | cell viability (P12-Ichikawa [3]; [14]): 109% | cell viability (P12-Ichikawa [3]; [15]): 120% | cell viability (P12-Ichikawa [3]; [16]): 119% | cell viability (P12-Ichikawa [3]; [17]): 103% | cell viability (P12-Ichikawa [3]; [18]): 110% | cell viability (P12-Ichikawa [3]; [19]): 122% | cell viability (P12-Ichikawa [3]; [20]): 121% | cell viability (P12-Ichikawa [3]; [21]): 131% | cell viability (P12-Ichikawa [3]; [22]): 129% | cell viability (P12-Ichikawa [3]; [23]): 137% | cell viability (P12-Ichikawa [3]; [24]): 134% | cell viability (P12-Ichikawa [3]; [25]): 130% | cell viability (P12-Ichikawa [3]; [26]): 124% | cell viability (P12-Ichikawa [3]; [27]): 109% | cell viability (P12-Ichikawa [3]; [28]): 98.3% | cell viability (P12-Ichikawa [3]; [29]): 129% | cell viability (NOMO1 [4]; [8]): 123% | cell viability (NOMO1 [4]; [9]): 109% | cell viability (NOMO1 [4]; [10]): 121% | cell viability (NOMO1 [4]; [11]): 117% | cell viability (NOMO1 [4]; [12]): 106% | cell viability (NOMO1 [4]; [13]): 120% | cell viability (NOMO1 [4]; [14]): 110% | cell viability (NOMO1 [4]; [15]): 113% | cell viability (NOMO1 [4]; [16]): 37.9% | cell viability (NOMO1 [4]; [17]): 82.7% | cell viability (NOMO1 [4]; [18]): 123% | cell viability (NOMO1 [4]; [19]): 131% | cell viability (NOMO1 [4]; [20]): 113% | cell viability (NOMO1 [4]; [21]): 124% | cell viability (NOMO1 [4]; [22]): 116% | cell viability (NOMO1 [4]; [23]): 114% | cell viability (NOMO1 [4]; [24]): 118% | cell viability (NOMO1 [4]; [25]): 120% | cell viability (NOMO1 [4]; [26]): 122% | cell viability (NOMO1 [4]; [27]): 28.1% | cell viability (NOMO1 [4]; [28]): 94.5% | cell viability (NOMO1 [4]; [29]): 107% | cell viability (NOMO1 [4]; [30]): 114% | cell viability (NOMO1 [4]; [31]): 128% | cell viability (NOMO1 [4]; [32]): 124% | cell viability (NOMO1 [4]; [33]): 130% | cell viability (NOMO1 [4]; [34]): 128% | cell viability (NOMO1 [4]; [35]): 119% | cell viability (NOMO1 [4]; [36]): 116% | cell viability (NOMO1 [4]; [37]): 119% | cell viability (NOMO1 [4]; [38]): 35.6% | cell viability (NOMO1 [4]; [39]): 77.8% | cell viability (NOMO1 [4]; [40]): 109% | cell viability (SEM cells [5]; [8]): 117% | cell viability (SEM cells [5]; [9]): 108% | cell viability (SEM cells [5]; [10]): 105% | cell viability (SEM cells [5]; [11]): 107% | cell viability (SEM cells [5]; [12]): 122% | cell viability (SEM cells [5]; [13]): 117% | cell viability (SEM cells [5]; [14]): 28.7% | cell viability (SEM cells [5]; [15]): 102% | cell viability (SEM cells [5]; [16]): 112% | cell viability (SEM cells [5]; [17]): 107% | cell viability (SEM cells [5]; [18]): 103% | cell viability (SEM cells [5]; [19]): 142% | cell viability (SEM cells [5]; [20]): 120% | cell viability (SEM cells [5]; [21]): 117% | cell viability (SEM cells [5]; [22]): 109% | cell viability (SEM cells [5]; [23]): 118% | cell viability (SEM cells [5]; [24]): 126% | cell viability (SEM cells [5]; [25]): 22.5% | cell viability (SEM cells [5]; [26]): 128% | cell viability (SEM cells [5]; [27]): 119% | cell viability (SEM cells [5]; [28]): 112% | cell viability (SEM cells [5]; [29]): 84.4% | cell viability (SEM cells [5]; [30]): 125% | cell viability (SEM cells [5]; [31]): 103% | cell viability (SEM cells [5]; [32]): 89.6% | cell viability (SEM cells [5]; [33]): 103% | cell viability (SEM cells [5]; [34]): 100% | cell viability (SEM cells [5]; [35]): 97.5% | cell viability (SEM cells [5]; [36]): 26.8% | cell viability (SEM cells [5]; [37]): 126% | cell viability (SEM cells [5]; [38]): 112% | cell viability (SEM cells [5]; [39]): 108% | cell viability (SEM cells [5]; [40]): 97.2%

C/C=C/C[C@@H](C)C(=O)[C@H]1C(=O)N[C@@H](C(C)C)C(=O)N(C)CC(=O)N(C)[C@@H](CC(C)C)C(=O)N[C@@H](C(C)C)C(=O)N(C)[C@@H](CC(C)C)C(=O)N[C@@H](C)C(=O)N[C@H](C)C(=O)N(C)[C@@H](CC(C)C)C(=O)N(C)[C@@H](CC(C)C)C(=O)N(C)[C@@H](C(C)C)C(=O)N1C
AUC of viability dose-response curve (P12-Ichikawa [1]; HPLM + 10% dialyzed FBS): 424 | AUC of viability dose-response curve (P12-Ichikawa [1]; RPMI 5 mM glucose + 10% FBS): 413 | AUC of viability dose-response curve (P12-Ichikawa [1]; [7]): 411 | AUC of viability dose-response curve (NOMO1 [6]; HPLM + 10% dialyzed FBS): 441 | AUC of viability dose-response curve (NOMO1 [6]; RPMI 5 mM glucose + 10% FBS): 466 | AUC of viability dose-response curve (NOMO1 [6]; [7]): 461 | AUC of viability dose-response curve (SEM cells [2]; HPLM + 10% dialyzed FBS): 427 | AUC of viability dose-response curve (SEM cells [2]; RPMI 5 mM glucose + 10% FBS): 406 | AUC of viability dose-response curve (SEM cells [2]; [7]): 424 | cell viability (SEM cells [5]; [30]): 125% | cell viability (SEM cells [5]; [31]): 125% | cell viability (SEM cells [5]; [32]): 108% | cell viability (SEM cells [5]; [33]): 151% | cell viability (SEM cells [5]; [34]): 131% | cell viability (SEM cells [5]; [35]): 120% | cell viability (SEM cells [5]; [36]): 123% | cell viability (SEM cells [5]; [37]): 108% | cell viability (SEM cells [5]; [38]): 108% | cell viability (SEM cells [5]; [39]): 71.6% | cell viability (SEM cells [5]; [40]): 23.7%
